Assay results published in ChEMBL document CHEMBL5236565, “Design, synthesis, and biological evaluation of novel 2'-methyl-2'-fluoro-6-methyl-7-alkynyl-7-deazapurine nucleoside analogs as anti-Zika virus agents” (Eur J Med Chem, 2022).
The source made the active and inactive calls. No cut-off for these calls is given here.

How the values were obtained:
Zika virus [1] = assay: Antiviral activity against ZIKV infected in human A549 cells at 50 uM by microtiter assay relative to control; type: functional
Zika virus [2] = assay: Antiviral activity against ZIKV MR766 infected in human Huh-7 cells assessed as reduction in viral induced cytopathic effect by measuring reduction in PFU measured after 4 days by neutral red staining based plaque assay; type: functional, organism-based; conditions: MR766, Huh-7, 96 h; for EC90: time 4 day
SNB-19 = assay: Cytotoxicity against human SNB-19 cells assessed as cell growth inhibition measured after 24 hrs by MTT assay; type: functional
Vero [3] = assay: Downregulation of ZIKV E protein cleaved caspase 3 expression in African green monkey Vero cells at 10 to 50 uM measured after 48 hrs by Western blotting analysis; type: functional, cell-based; conditions: Chlorocebus sabaeus, dose 10-50 µM
Zika virus [4] = assay: Antiviral activity against ZIKV ZG-01 infected in African green monkey Vero cells assessed as reduction in viral induced cytopathic effect by measuring reduction in PFU measured after 4 days by neutral red staining based plaque assay; type: functional, organism-based; conditions: ZG-01, Vero, 96 h; for EC90: time 4 day
Zika virus [5] = assay: Antiviral activity against ZIKV ZG-01 infected in human Huh-7 cells assessed as reduction in viral induced cytopathic effect by measuring reduction in PFU measured after 4 days by neutral red staining based plaque assay; type: functional, organism-based; conditions: ZG-01, Huh-7, 96 h; for EC90: time 4 day
Zika virus [6] = assay: Antiviral activity against ZIKV ZG-01 infected in human SNB-19 cells assessed as reduction in viral induced cytopathic effect by measuring reduction in PFU measured after 4 days by neutral red staining based plaque assay; type: functional, organism-based; conditions: ZG-01, SNB-19, 96 h; for EC90: time 4 day
A549 [7] = assay: Downregulation of ZIKV E protein cleaved caspase 3 expression in human A549 cells at 10 to 50 uM measured after 48 hrs by Western blotting analysis; type: functional, cell-based; conditions: dose 10-50 µM
Zika virus [8] = assay: Antiviral activity against ZIKV MR766 infected in human SNB-19 cells assessed as reduction in viral induced cytopathic effect by measuring reduction in PFU measured after 4 days by neutral red staining based plaque assay; type: functional, organism-based; conditions: MR766, SNB-19, 96 h; for EC90: time 4 day
A549 [9] = assay: Cytotoxicity against human A549 cells assessed as cell growth inhibition measured after 24 hrs by MTT assay; type: functional
Zika virus [10] = assay: Antiviral activity against ZIKV ZG-01 infected in human A549 cells assessed as reduction in viral induced cytopathic effect by measuring reduction in PFU measured after 4 days by neutral red staining based plaque assay; type: functional, organism-based; conditions: ZG-01, A549, 96 h; for EC90: time 4 day
A549 [11] = assay: Downregulation of ZIKV E protein cleaved caspase 3 expression in human A549 cells at 5 to 25 uM by immunofluorescence analysis; type: functional, cell-based; conditions: dose 5-25 µM
[12] = Cytotoxicity against African green monkey Vero cells assessed as cell growth inhibition measured after 24 hrs by MTT assay; type: toxicity, cell-based; conditions: chlorocebus sabaeus
Zika virus [13] = assay: Antiviral activity against ZIKV MR766 infected in human A549 cells assessed as reduction in viral induced cytopathic effect by measuring reduction in PFU measured after 4 days by neutral red staining based plaque assay; type: functional, organism-based; conditions: MR766, A549, 96 h; for EC90: time 4 day
Zika virus [14] = assay: Antiviral activity against ZIKV MR766 infected in African green monkey Vero cells assessed as reduction in viral induced cytopathic effect by measuring reduction in PFU measured after 4 days by neutral red staining based plaque assay; type: functional, organism-based; conditions: 96 h; for EC90: time 4 day
Huh-7 = assay: Cytotoxicity against human Huh-7 cells assessed as cell growth inhibition measured after 24 hrs by MTT assay; type: functional
A549 [15] = assay: Downregulation of ZIKV E protein cleaved caspase 3 expression in human A549 cells at 5 to 25 uM measured after 48 hrs by Western blotting analysis; type: functional, cell-based; conditions: dose 5-25 µM
Vero [16] = assay: Downregulation of ZIKV E protein cleaved caspase 3 expression in African green monkey Vero cells at 5 to 25 uM measured after 48 hrs by Western blotting analysis; type: functional, cell-based; conditions: Chlorocebus sabaeus, dose 5-25 µM
A549 [17] = assay: Downregulation of ZIKV E protein cleaved caspase 3 expression in human A549 cells at 2.5 to 25 uM by immunofluorescence analysis; type: functional, cell-based; conditions: dose 2.5-25 µM
A549 [18] = assay: Induction of mitochondrial membrane potential loss in human A549 cells at 50 to 100 uM by JC-1 staining based fluorescence microscope; type: functional, cell-based; conditions: dose 50-100 µM
NS5 = NS5 (Zika virus, UniProt A0A143MHK7); assay: Binding affinity to N-terminal His-tagged recombinant ZIKV ZG-01 RdRp (272 to 903 residues) expressed in Escherichia coli rosetta by surface plasmon resonance assay
Chain of NS5 (A0A143MHK7 whole entry, the tested form may be a part): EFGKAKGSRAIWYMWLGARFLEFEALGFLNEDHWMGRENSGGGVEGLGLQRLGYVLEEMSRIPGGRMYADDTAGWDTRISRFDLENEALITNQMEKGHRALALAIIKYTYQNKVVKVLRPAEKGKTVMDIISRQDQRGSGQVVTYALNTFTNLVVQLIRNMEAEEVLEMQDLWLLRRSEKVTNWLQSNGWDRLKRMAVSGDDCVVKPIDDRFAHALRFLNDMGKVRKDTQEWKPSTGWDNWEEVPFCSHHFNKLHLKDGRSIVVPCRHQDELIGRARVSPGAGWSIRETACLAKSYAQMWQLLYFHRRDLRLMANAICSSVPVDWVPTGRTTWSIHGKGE

Q: Which Activity (Zika virus [1]) does the source give for `Cc1ncnc2c1c(/C=C/c1ccccc1)cn2[C@@H]1O[C@H](CO)[C@@H](O)[C@@]1(C)F` here?
A: <10%

Q: Which Activity (Zika virus [1]) does the source give for `Cc1ncnc2c1c(C#Cc1ccccn1)cn2[C@@H]1O[C@H](CO)[C@@H](O)[C@@]1(C)F` here?
A: 18.8%

Q: Which Activity (Zika virus [1]) does the source give for `Cc1ncnc2c1c(C#CC(C)(C)C)cn2[C@@H]1O[C@H](CO)[C@@H](O)[C@@]1(C)F` here?
A: 22.4%

Q: What does the source list for `NC(=O)c1ncn([C@@H]2O[C@H](CO)[C@@H](O)[C@H]2O)n1` [RIBAVIRIN]?
A: EC50 (Zika virus [2]): 17.7 µM; EC90 (Zika virus [2]): 51 µM; CC50 (SNB-19): 485 µM; Activity (Vero [3]): inactive; EC50 (Zika virus [4]): > 80 µM; EC90 (Zika virus [4]): > 80 µM; EC50 (Zika virus [5]): 14.1 µM; EC90 (Zika virus [5]): 47.4 µM; EC50 (Zika virus [6]): > 80 µM; EC90 (Zika virus [6]): > 80 µM; Activity (A549 [7]): inactive; EC50 (Zika virus [8]): > 80 µM; EC90 (Zika virus [8]): > 80 µM; CC50 (A549 [9]): > 50 µM; EC50 (Zika virus [10]): 36.1 µM; EC90 (Zika virus [10]): 70.3 µM; Activity (A549 [11]): inactive; CC50 at 24 h [12]: 470 µM; EC50 (Zika virus [13]): 38.1 µM; EC90 (Zika virus [13]): 75.9 µM; EC50 (Zika virus [14]): > 80 µM; EC90 (Zika virus [14]): > 80 µM; CC50 (Huh-7): 513 µM

Q: Which Activity (Zika virus [1]) does the source give for `Cc1cccc(C#Cc2cn([C@@H]3O[C@H](CO)[C@@H](O)[C@@]3(C)F)c3ncnc(C)c23)n1` here?
A: <10%

Q: Which Activity (Zika virus [1]) does the source give for `Cc1ncnc2c1c(C#Cc1cccnc1)cn2[C@@H]1O[C@H](CO)[C@@H](O)[C@@]1(C)F` here?
A: <10%

Q: For `Cc1ccnc(C#Cc2cn([C@@H]3O[C@H](CO)[C@@H](O)[C@@]3(C)F)c3ncnc(C)c23)c1`, which Activity (Zika virus [1]) is on record?
A: <10%

Q: What does the source list for `Cc1ncnc2c1c(C#Cc1ccc(Br)c(F)c1)cn2[C@@H]1O[C@H](CO)[C@@H](O)[C@@]1(C)F`?
A: Activity (A549 [15]): Active; EC50 (Zika virus [2]): 6.1 µM; EC90 (Zika virus [2]): 14.6 µM; Activity (Vero [16]): Active; CC50 (SNB-19): 49.4 µM; EC50 (Zika virus [4]): 3.1 µM; EC90 (Zika virus [4]): 7.1 µM; EC50 (Zika virus [5]): 5.7 µM; EC90 (Zika virus [5]): 16.4 µM; Activity (A549 [17]): Active; EC50 (Zika virus [6]): 6.4 µM; EC90 (Zika virus [6]): 16.6 µM; EC50 (Zika virus [8]): 8.9 µM; EC90 (Zika virus [8]): 19.8 µM; Activity (A549 [18]): inactive; Kd (NS5): 1.87 µM; CC50 (A549 [9]): > 50 µM; EC50 (Zika virus [10]): 2.8 µM; EC90 (Zika virus [10]): 6.8 µM; CC50 at 24 h [12]: 46.8 µM; EC50 (Zika virus [13]): 6.4 µM; EC90 (Zika virus [13]): 18 µM; EC50 (Zika virus [14]): 7.7 µM; EC90 (Zika virus [14]): 18.6 µM; CC50 (Huh-7): 43.8 µM

Q: With `Cc1ccccc1C#Cc1cn([C@@H]2O[C@H](CO)[C@@H](O)[C@@]2(C)F)c2ncnc(C)c12` as the compound, how does the Activity (Zika virus [1]) read?
A: >90%

Q: And the CC50 (A549 [9])?
A: > 50 µM

Q: What about the EC50 (Zika virus [10]) of the same compound?
A: 8.5 µM

Q: And the EC90 (Zika virus [10])?
A: 25.7 µM

Q: For `Cc1ncnc2c1c(-c1ccccc1)cn2[C@@H]1O[C@H](CO)[C@@H](O)[C@@]1(C)F`, which Activity (Zika virus [1]) is on record?
A: <10%

Q: With `Cc1ncnc2c1c(-c1ccc(-c3ccccc3)cc1)cn2[C@@H]1O[C@H](CO)[C@@H](O)[C@@]1(C)F` as the compound, how does the Activity (Zika virus [1]) read?
A: 29.9%

Q: Which Activity (Zika virus [1]) does the source give for `CCOC(=O)c1ccc(C#Cc2cn([C@@H]3O[C@H](CO)[C@@H](O)[C@@]3(C)F)c3ncnc(C)c23)s1` here?
A: >90%

Q: What about the CC50 (A549 [9]) of the same compound?
A: > 50 µM

Q: What about the EC50 (Zika virus [10]) of the same compound?
A: 39.8 µM

Q: What about the EC90 (Zika virus [10]) of the same compound?
A: > 50 µM

Q: For `Cc1ncnc2c1c(C#Cc1ccccc1C(F)(F)F)cn2[C@@H]1O[C@H](CO)[C@@H](O)[C@@]1(C)F`, which Activity (Zika virus [1]) is on record?
A: 34.4%

Q: What does the source list for `COc1cccc(C#Cc2cn([C@@H]3O[C@H](CO)[C@@H](O)[C@@]3(C)F)c3ncnc(C)c23)c1`?
A: Activity (Zika virus [1]): >90%; CC50 (A549 [9]): > 50 µM; EC50 (Zika virus [10]): 14.8 µM; EC90 (Zika virus [10]): 40.4 µM

Q: Which Activity (Zika virus [1]) does the source give for `C#Cc1cn([C@@H]2O[C@H](CO)[C@@H](O)[C@@]2(C)F)c2ncnc(C)c12` here?
A: <10%

Q: For `COc1ccc(C#Cc2cn([C@@H]3O[C@H](CO)[C@@H](O)[C@@]3(C)F)c3ncnc(C)c23)cc1`, which Activity (Zika virus [1]) is on record?
A: >90%

Q: And the CC50 (A549 [9])?
A: > 50 µM

Q: What about the EC50 (Zika virus [10]) of the same compound?
A: 11.8 µM

Q: What about the EC90 (Zika virus [10]) of the same compound?
A: 40.7 µM

Q: Which results are given for `Cc1ncnc2c1c(C#Cc1cccs1)cn2[C@@H]1O[C@H](CO)[C@@H](O)[C@@]1(C)F`?
A: Activity (Zika virus [1]): >90%; CC50 (A549 [9]): > 50 µM; EC50 (Zika virus [10]): 35.4 µM; EC90 (Zika virus [10]): 50 µM

Q: For `Cc1ncnc2c1c(C#Cc1cccc(F)c1)cn2[C@@H]1O[C@H](CO)[C@@H](O)[C@@]1(C)F`, which Activity (Zika virus [1]) is on record?
A: <10%

Q: With `Cc1ccc(C#Cc2cn([C@@H]3O[C@H](CO)[C@@H](O)[C@@]3(C)F)c3ncnc(C)c23)s1` as the compound, how does the Activity (Zika virus [1]) read?
A: 43.9%

Q: For `Cc1ncnc2c1c(C#Cc1ccc(F)cc1)cn2[C@@H]1O[C@H](CO)[C@@H](O)[C@@]1(C)F`, which Activity (Zika virus [1]) is on record?
A: 37.5%
